# Source: US20150238466A1, “LIM KINASE INHIBITORS” (RAMOT AT TEL-AVIV UNIVERSITY LTD., priority 2012, published 2015)
# Where “and” joins values, the source holds several entries; their conditions need not be identical. Equal values may be shown once.
# How the values were obtained:
# NF1−/− MEFs [1] = assay: Growth (cell number) of NF1−/− MEFs, direct counting after 5 days; format: cell-based, mouse; details: for inhibition at 5 µM / inhibition at 25 µM: Mus musculus
# Experimental: Cells were directly counted and typical inhibition curves are shown (means±SEM, n=9; **P<0.01, ***P<0.001).
# The cells were plated in 24-well plates at a density of 5×10^3 cells per well.
# NF1−/− MEFs [2] = assay: Actin stress fibers, rhodamine-phalloidin staining of NF1−/− MEFs; format: cell-based, mouse
# Experimental: MEFs were seeded on glass coverslips in 6-well plates at the densities of 2.5×10^4 cells per well. […] Cells were further incubated for 24 hours and were then fixed, permeabilized, and washed. Rhodamine-labeled phalloidin was added for 30 minutes and the slides were then washed, mounted, and imaged. F-actin was visualized and then photographed under an LSM510 confocal microscope (×63 objective) fitted with rhodamine filters. Statistical analysis was performed by counting 100 cells from each slide, with or without stress fibers, under an Olympus fluorescence microscope.
# LIMK = assay: Western blot of p-cofilin in NF1−/− MEFs; format: cell-based, mouse
# Experimental: FIG. 3A-B presents an immunoblot and graphical presentation of immunoblots. […] Normalization was performed using beta-tubulin. Average inhibition was calculated as a percentage of control (mean±SD, n=3,*P<0.05; **P<0.01 compared to control (Student's t-test)).
# NF1−/− MEFs were plated at a density of lx 10^5 or 5×10^5 cells in 6-well plates or 10-cm dishes, respectively, and were allowed to grow overnight in a medium containing 10% FCS. […] The cells were then lysed with solubilization buffer (50 mMTris-HCl at a pH of 7.6, 20 mM MgCl2, 200 mM NaCl, 0.5% NP40, 1 mM Dithiothreitol, and protease inhibitors), and the lysate (50 μg) was subjected to SDS-PAGE and then immunoblotted with one of the following antibodies: anti-p-cofilin (1:1000), anti-cofilin (1:1000), anti-β-tubulin (1:500). The immunoblots were then exposed to peroxidase-goat anti-rabbit IgG (1:2500), and protein bands were visualized by enhanced chemiluminescence and quantified by densitometry (EZ-Qant). Rabbit anti-cofilin and p-cofilin (Ser3) were from Cell Signaling Technolgy (Beverly, Mass.); mouse anti-β-tubulin antibody was from Sigma-Aldrich; peroxidase-goat anti-mouse IgG and peroxidase-goat anti-rabbit IgG were from Jackson ImmunoResearch Laboratories (West Grove, Pa.).
# It has been previously shown that the levels of phosphorylated cofilin (p-cofilin) are high in NF1^−/− Mouse Embryonic Fibroblasts (MEFs). Thus, these cells were used herein to examine the impact of compound 1 on phosphorylation of cofilin.
# The cells were lysed and subjected to immunoblotting with anti-p-cofilin, anti-cofilin, and anti-β-tubulin (as loading control) antibodies. […] These findings, taken together, support the predicted LIMK model as well as the predicted LIMK inhibitor.
# [3] = test system: Panc-1-pancreatic cancer tumor cell line; assay: Growth inhibition of Panc-1 cells; format: cell-based; details: Homo sapiens, 120 h; Panc-1, 5 days; read-out: IC50, reduction of cell number
# Description: (§1) Cells were directly counted and typical inhibition curves are shown.
# Panc-1 tumor = assay: Panc-1 human pancreatic tumor growth in nude mice; format: in vivo, mouse; details: for average tumor size: control group 745
# Description: FIG. 11A—Panc-1 cells were implanted s.c. in the right flank of athymic nude mice. After 7 days, the mice were separated randomly into one vehicle-treated control group and two T-56-LIMKi groups (n=8). […] Tumor volumes (means±S.E.M, * p-value<0.05) during the experiment period are shown. FIG. 11B—The mice were weighted at indicated time point. Presented are average weights of each group (grams±stdev).
# Nude CD1-Nu mice (6 weeks old) were housed in barrier facilities on a 12-h light/dark cycle. Food and water were supplied ad libitum. On day zero, 5×10^6 Panc-1 cells in 0.1 ml of PBS were implanted s.c. just above the right femoral joint When tumor volumes reached values of 0.06-0.07 cm3 (day 0 of compound-1 treatment), the mice were randomly separated into three groups. Control mice received vehicle; compound-1-treated mice received 30 or 60 mg/kg T56-LIMKi (oral administration of 0.1 ml with 0.5% CMC daily). Tumor volume was calculated as (length×width)×[(length+width)÷2].
# The effects of compound ion human pancreatic tumor growth in nude mice was examined, i.e., on cell transformation in an in vivo model. Mice received 5×10^6 cells subcutaneously (s.c.) in the right flank. […] By day 31, 4 out of 8 tumors in the 60 mg/kg treated group disappeared completely.
# NF1−/− MEFs [4] = assay: Scratch-induced (wound-healing) migration assay, NF1−/− MEFs; format: cell-based, mouse; details: within 3 hours, compound 1 at 50 μM; untreated cells 50%
# Experimental: (§2) FIG. 6 is a graph showing gap width in NF1−/− MEFs cells examined (mean±SD, n=9), expressed as a percentage of the gap at the time of scratching.
# (§3) Scratch-induced migration assay was performed as described in Goldberg et al.. Briefly, NF1-knockout and wt MEFs were seeded on collagen-covered 35-mm plates at a cell density of 1.5×10^5 per plate. […] Three areas were scratched in each plate, creating three gaps of similar widths. The media and the inhibitors were then replenished. Immediately thereafter, and at the time points indicated in the Examples section, phase-contrast images of the plates were obtained with a CCD camera connected to an Olympus fluorescence microscope (×10 objective). The region imaged was marked at time “zero” in order to enable photographing the same area at the different time points, and so that a specific population of migrating cells may be examined. The widths of the gaps treated with the inhibitor were measured at different time points, using the Image-Pro Plus software. […] Statistical analysis of the results was performed, of either the mean gap width (in arbitrary units) of compound 1-treated cells relative to the control at different time points (means±SD, n=9) or the percentage of migration, calculated as the width of the gap still open at the final time point, expressed as a percentage of the gap size at zero time for each treatment (means±SD, n=9). […]
# U87-glioblastoma = assay: Growth inhibition of U87 cells; format: cell-based; details: Homo sapiens, U-87 MG, 120 h; U87, 5 days; read-out: IC50, reduction of cell number
# Description: as §1
# wt MEFs = assay: Scratch-induced (wound-healing) migration assay, wt MEFs; format: cell-based, mouse; details: compound 1 at 50 μM
# Experimental: as §2, §3
# NF1−/− MEFs [5] = assay: Anchorage-independent growth in soft agar; format: cell-based, mouse; details: 25 and 50 μM, 14 days
# Experimental: FIG. 7B is a graph showing a statistical analysis of the anchorage-independent growth experiment. Columns, mean (n=5); bars, SD; *P<0.001.
# Noble agar 2% (Difco, Detroit, Mich.) was mixed with DMEM×2 medium, containing 10% FCS, 4 mM L-glutamine, 200 units/mL penicillin, and 0.2 mg/mL streptomycin. The mixture (50 μL) was poured into 96-well plates to provide the agar base at a final agar concentration of 1%. […] The cells were incubated for 14 days and then stained for 4 hours with 1 mg/mL 344,5-dimethylthiazol-2-yl)-2 5-diphenyltetrazolium bromide (MTT; Sigma-Aldrich, St. Louis, Mo.), which stains active mitochondria in living cells, and the colonies were imaged. Colonies larger than 0.16 mm^2 (mean±SD, n=5) were counted using Image-Pro Plus software (Media Cybernetics, Carlsbad, Calif.). The average percentage of colonies in each group (means±SD, n=5) was calculated by dividing the number of colonies of a particular treatment and specific group size by the number of colonies of the same size in the corresponding untreated control group.
# ST-88-swanoma = assay: Growth inhibition of ST-88 cells; format: cell-based; details: 120 h; ST-88, 5 days; read-out: IC50, reduction of cell number
# Description: as §1
# [6] = In-vivo toxicity, single oral dose in nude mice; details: single oral dose 20-100 mg/kg in 0.5% CMC, followed for 2 weeks
# Description: The mice were weighted and followed for 14 days after the administration. Average weight of treated mice is presented. (n=2).
# The mice were followed for 2 weeks to measure toxic effects.
smiles,measurement,setting,value
"CC(C)=CCC/C(C)=C/CC/C(C)=C/CSc1ccccc1C(=O)O [FTS, S-trans, trans-farnesyl thiosalicyclic acid, reference compound]",growth inhibition,NF1−/− MEFs [1]; FTS alone (zero compound 1),33%±1.6%
same,decrease in stress fiber formation,NF1−/− MEFs [2]; FTS alone,20%±5.6%
"CC(C)C(=O)Nc1ncc(-c2cc(C(F)F)nn2-c2c(Cl)cccc2Cl)s1 [BMS-5, N-{5-(2-(2,6-dichloro-phenyl)-5-difluoromethyl-2H-pyrazol-3-yl)-thiazol-2-yl}-isobutyramide, reference compound]","reduction of p-cofilin level, potency compared with compound 1","LIMK; similar experiment, 2 hours, NF1−/− MEFs",more potent than compound 1
Cc1cc(C(=O)Nc2cccc(C(=O)Nc3cccc(C(F)(F)F)c3)c2)on1 [compound 1],IC50,[3],~25 µM
same,significance of the reduction of tumor volume,Panc-1 tumor; 60 mg/kg daily oral,significant from day 18
same,mouse weight,Panc-1 tumor; 30 or 60 mg/kg daily oral,not affected
same,signs of cytotoxicity,Panc-1 tumor; 30 or 60 mg/kg daily oral,no signs of cytotoxicity
same,average tumor size,"Panc-1 tumor; Day 22, 30 mg/kg daily oral",488 mm^3
same,average tumor size,"Panc-1 tumor; Day 22, 60 mg/kg daily oral",268 mm^3
same,tumors that disappeared completely,"Panc-1 tumor; by day 31, 60 mg/kg daily oral",4 out of 8
same,gap closed,NF1−/− MEFs [4],10%
same,IC50,U87-glioblastoma,~25 µM
same,mobility of wt MEFs,wt MEFs,not affected
same,inhibition at 5 µM,NF1−/− MEFs [1]; compound 1 at 5 μM in the absence of FTS,13%
same,inhibition at 5 µM,NF1−/− MEFs [1]; compound 1 at 5 μM in the presence of FTS,60%
same,inhibition at 25 µM,NF1−/− MEFs [1]; compound 1 at 25 μM in the absence of FTS,51%
same,inhibition at 25 µM,NF1−/− MEFs [1]; compound 1 at 25 μM in the presence of FTS,85.5%
same,reduction in cell proliferation,NF1−/− MEFs [1]; compound 1 at 50 μM,70%
same,colony formation in soft agar,NF1−/− MEFs [5],inhibited in a dose-dependent manner
same,IC50,ST-88-swanoma,~25 µM
same,inhibition of cofilin phosphorylation by LIMK,LIMK; 50 μM,about 50%
same,amounts of total cofilin,"LIMK; 2 hours, NF1−/− MEFs",did not affect
same,level of p-cofilin,"LIMK; compound 1 at 10-50 μM, 2 hours, serum-starved NF1−/− MEFs",reduced
same,decrease in the number of cells exhibiting stress fibers,NF1−/− MEFs [2]; compound 1 at 50 μM,26%±7.7% and 30%
same,body weight,[6],no weight lost was detected
same,toxic effects (appearance of mice),[6],looked normal at all doses
same,toxic effects (appearance of mice),[6]; listed as T56-LIMKi,not toxic
